Among the data in US8691865B2 (AbbVie Inc., priority 2008, dated 2014) are IC50 values, retold here.

Each structure is given as a SMILES string.

Chain of human Cav2.2 (Q00975 whole entry): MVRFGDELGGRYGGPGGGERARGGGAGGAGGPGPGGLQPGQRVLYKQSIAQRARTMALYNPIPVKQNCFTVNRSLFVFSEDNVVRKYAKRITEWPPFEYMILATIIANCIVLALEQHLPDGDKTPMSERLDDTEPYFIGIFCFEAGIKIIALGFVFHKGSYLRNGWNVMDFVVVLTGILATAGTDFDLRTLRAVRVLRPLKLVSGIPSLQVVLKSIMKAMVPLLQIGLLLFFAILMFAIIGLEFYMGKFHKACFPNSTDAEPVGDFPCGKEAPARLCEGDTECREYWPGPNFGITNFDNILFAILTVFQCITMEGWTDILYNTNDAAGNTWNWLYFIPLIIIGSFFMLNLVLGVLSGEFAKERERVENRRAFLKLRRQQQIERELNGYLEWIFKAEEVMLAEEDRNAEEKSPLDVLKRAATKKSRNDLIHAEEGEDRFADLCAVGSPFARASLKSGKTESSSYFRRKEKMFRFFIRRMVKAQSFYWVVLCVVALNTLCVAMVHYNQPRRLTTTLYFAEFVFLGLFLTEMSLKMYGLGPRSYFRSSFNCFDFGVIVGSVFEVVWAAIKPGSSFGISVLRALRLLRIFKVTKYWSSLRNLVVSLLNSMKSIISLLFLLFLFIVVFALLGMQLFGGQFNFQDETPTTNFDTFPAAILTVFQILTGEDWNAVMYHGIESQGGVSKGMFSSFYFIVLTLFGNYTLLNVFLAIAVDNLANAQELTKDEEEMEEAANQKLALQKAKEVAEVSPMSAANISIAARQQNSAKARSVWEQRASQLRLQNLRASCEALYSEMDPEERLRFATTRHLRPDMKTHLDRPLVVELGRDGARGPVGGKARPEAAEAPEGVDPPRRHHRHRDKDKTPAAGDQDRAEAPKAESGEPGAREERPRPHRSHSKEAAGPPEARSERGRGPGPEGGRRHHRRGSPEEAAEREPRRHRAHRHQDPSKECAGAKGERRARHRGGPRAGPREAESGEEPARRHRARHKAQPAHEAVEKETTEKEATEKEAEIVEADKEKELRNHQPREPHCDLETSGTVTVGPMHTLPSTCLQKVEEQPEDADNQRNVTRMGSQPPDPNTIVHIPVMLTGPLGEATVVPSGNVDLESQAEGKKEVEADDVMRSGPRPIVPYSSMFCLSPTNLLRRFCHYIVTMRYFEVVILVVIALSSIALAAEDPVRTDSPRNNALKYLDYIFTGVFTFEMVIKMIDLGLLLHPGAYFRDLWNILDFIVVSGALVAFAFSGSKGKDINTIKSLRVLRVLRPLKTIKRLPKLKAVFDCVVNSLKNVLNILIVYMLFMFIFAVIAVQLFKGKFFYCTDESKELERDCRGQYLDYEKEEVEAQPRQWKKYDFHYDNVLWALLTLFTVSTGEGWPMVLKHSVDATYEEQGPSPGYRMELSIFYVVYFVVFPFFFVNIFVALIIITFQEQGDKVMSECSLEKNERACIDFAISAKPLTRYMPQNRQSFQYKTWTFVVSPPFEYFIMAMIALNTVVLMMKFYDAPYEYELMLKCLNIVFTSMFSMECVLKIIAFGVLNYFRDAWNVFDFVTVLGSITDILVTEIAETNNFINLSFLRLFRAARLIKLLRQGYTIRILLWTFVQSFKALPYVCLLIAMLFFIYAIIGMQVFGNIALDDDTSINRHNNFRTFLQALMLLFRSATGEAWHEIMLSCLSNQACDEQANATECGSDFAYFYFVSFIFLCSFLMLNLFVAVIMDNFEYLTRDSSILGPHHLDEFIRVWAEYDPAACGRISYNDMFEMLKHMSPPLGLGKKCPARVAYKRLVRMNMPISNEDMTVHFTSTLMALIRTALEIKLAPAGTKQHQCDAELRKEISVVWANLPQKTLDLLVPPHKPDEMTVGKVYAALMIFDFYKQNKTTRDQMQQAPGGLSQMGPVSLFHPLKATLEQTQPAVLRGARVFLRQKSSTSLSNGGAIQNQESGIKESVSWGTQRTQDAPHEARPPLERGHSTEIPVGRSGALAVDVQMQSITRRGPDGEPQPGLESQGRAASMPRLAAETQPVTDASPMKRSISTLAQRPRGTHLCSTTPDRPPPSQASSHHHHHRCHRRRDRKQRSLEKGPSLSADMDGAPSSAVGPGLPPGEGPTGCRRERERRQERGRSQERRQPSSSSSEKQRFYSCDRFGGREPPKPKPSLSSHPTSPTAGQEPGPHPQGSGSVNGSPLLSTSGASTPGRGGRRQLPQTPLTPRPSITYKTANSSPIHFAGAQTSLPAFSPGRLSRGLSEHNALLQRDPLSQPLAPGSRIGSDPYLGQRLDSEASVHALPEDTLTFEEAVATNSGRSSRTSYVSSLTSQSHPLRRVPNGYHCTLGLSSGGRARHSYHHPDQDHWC
Chain of human Cav2.2 (P54289 25-956 partner limits assumed): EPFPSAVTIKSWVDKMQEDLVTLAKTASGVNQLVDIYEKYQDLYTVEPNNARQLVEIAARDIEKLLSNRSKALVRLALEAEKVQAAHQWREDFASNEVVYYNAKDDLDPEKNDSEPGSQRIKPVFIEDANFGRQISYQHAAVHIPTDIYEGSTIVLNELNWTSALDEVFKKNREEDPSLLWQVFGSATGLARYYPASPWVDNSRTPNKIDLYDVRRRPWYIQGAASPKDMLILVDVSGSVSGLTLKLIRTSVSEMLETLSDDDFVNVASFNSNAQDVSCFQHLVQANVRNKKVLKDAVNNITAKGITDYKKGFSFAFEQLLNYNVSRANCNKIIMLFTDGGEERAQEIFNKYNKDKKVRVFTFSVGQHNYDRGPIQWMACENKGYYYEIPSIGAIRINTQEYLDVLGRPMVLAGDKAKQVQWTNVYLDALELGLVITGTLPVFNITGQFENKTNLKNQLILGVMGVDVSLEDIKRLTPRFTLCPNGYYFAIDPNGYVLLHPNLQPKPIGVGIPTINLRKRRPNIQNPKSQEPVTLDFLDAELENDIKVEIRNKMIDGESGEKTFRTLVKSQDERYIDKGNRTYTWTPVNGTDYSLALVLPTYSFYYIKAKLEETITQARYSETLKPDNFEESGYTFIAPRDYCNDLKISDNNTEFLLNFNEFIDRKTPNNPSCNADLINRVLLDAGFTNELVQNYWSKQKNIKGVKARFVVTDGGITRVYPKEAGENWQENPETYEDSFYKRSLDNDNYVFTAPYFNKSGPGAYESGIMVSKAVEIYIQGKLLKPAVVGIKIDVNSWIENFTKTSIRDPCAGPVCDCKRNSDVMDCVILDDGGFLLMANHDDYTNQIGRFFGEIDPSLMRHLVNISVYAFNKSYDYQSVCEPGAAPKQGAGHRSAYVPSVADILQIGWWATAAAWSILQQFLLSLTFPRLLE
Chain of human Cav2.2 (P54289 957-1103 partner limits assumed): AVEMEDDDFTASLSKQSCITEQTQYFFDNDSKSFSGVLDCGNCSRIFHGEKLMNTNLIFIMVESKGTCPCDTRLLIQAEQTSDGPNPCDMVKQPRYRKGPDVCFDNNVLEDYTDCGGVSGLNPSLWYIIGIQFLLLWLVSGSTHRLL
Chain of human Cav2.2 (P54284 whole entry partner): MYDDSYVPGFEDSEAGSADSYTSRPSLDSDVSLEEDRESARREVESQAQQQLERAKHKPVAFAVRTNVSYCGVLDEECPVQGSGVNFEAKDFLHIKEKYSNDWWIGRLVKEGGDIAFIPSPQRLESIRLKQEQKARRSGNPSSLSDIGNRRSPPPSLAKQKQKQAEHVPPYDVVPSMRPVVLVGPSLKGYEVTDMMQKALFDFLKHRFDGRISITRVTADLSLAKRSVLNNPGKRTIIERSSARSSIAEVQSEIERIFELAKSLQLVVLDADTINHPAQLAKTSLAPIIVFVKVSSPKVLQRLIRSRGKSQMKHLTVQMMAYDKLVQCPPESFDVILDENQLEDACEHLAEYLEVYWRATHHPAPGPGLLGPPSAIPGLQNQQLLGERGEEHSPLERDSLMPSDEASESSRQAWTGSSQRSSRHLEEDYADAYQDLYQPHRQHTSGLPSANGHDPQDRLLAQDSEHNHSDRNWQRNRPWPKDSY

One assay addresses human Cav2.2 (Homo sapiens, UniProt Q00975). The assay is described as follows: Assessment of calcium channel activity using FLIPR (Ca2+ influx in IMR32 cells). In kind it is cell-based.
Conditions: not given
The method, then:
(i) In Vitro Methods—Assessment of Calcium Channel Activity Using FLIPR:
The IMR32 cells were maintained in MEM media containing 10% (v/v) FBS, 1% (v/v) antibiotic/antimitotic, 1% (v/v) sodium pyruvate and 1% (v/v) MEM NEAA. Following dissociation in 0.05% (v/v) trypsin/EDTA, cells were seeded into black 1×96-well plates (Corning Cellbind) at a density of 1−1.2×10^5 cells/well and incubated in the maintenance media above for 48 hours at 37° C. […] To determine the IC50 values, the percent inhibition of the compound at each concentration was determined relative to the activity in the absence of inhibitor, and data was fitted using non-linear regression sigmoidal dose response curve analysis with GraphPad Prism®.
One may read the IC50 as the concentration that gives 50% inhibition. Turning to `O=C(N[C@H]1CC[C@H]2CNC[C@H]21)C(C1CCCCC1)C1CCCCC1` [Example 53, 2,2-dicyclohexyl-N-[(3aS,4S,6aR)-octahydrocyclopenta[c]pyrrol-4-yl]acetamide], the IC50 was determined as 8.54 µM.

Turning to `O=C(N[C@H]1CC[C@H]2CN(Cc3cccc(C(F)(F)F)c3)C[C@H]21)C(C1CCCCC1)C1CCCCC1` [Example 54, 2,2-dicyclohexyl-N-{(3aS,4S,6aR)-2-[3-(trifluoromethyl)benzyl]octahydrocyclopenta[c]pyrrol-4-yl}acetamide], the IC50 was found to be 0.46 µM.

For `O=C(N[C@H]1CC[C@H]2CN(Cc3ccccc3F)C[C@H]21)C(C1CCCCC1)C1CCCCC1` [Example 55, 2,2-dicyclohexyl-N-[(3aS,4S,6aR)-2-(2-fluorobenzyl)octahydrocyclopenta[c]pyrrol-4-yl]acetamide], the 50% inhibitory concentration (IC50) was 1.12 µM.

As for `O=C(N[C@H]1CC[C@H]2CN(Cc3ccc(F)cc3)C[C@H]21)C(C1CCCCC1)C1CCCCC1` [Example 56, 2,2-dicyclohexyl-N-[(3aS,4S,6aR)-2-(4-fluorobenzyl)octahydrocyclopenta[c]pyrrol-4-yl]acetamide], the IC50 was determined as 0.74 µM.

Regarding `O=C(N[C@H]1CC[C@H]2CN(Cc3ccccc3C(F)(F)F)C[C@H]21)C(C1CCCCC1)C1CCCCC1` [Example 60, 2,2-dicyclohexyl-N-{(3aS,4S,6aR)-2-[2-(trifluoromethyl)benzyl]octahydrocyclopenta[c]pyrrol-4-yl}acetamide], the IC50 turned out to be 2.43 µM.

On to `Cc1cccc(CN2C[C@@H]3CC[C@H](NC(=O)C(C4CCCCC4)C4CCCCC4)[C@@H]3C2)c1` [Example 61, 2,2-dicyclohexyl-N-[(3aS,4S,6aR)-2-(3-methylbenzyl)octahydrocyclopenta[c]pyrrol-4-yl]acetamide], for which the IC50 turned out to be 0.86 µM.

For the compound `O=C(N[C@H]1CC[C@H]2CN(Cc3cccc(OC(F)(F)F)c3)C[C@H]21)C(C1CCCCC1)C1CCCCC1` [Example 63, 2,2-dicyclohexyl-N-{(3aS,4S,6aR)-2-[3-(trifluoromethoxy)benzyl]octahydrocyclopenta[c]pyrrol-4-yl}acetamide], the IC50 was determined as 0.51 µM.

`O=C(N[C@H]1CC[C@H]2CN(Cc3cccc(F)c3)C[C@H]21)C(C1CCCCC1)C1CCCCC1` [Example 64, 2,2-dicyclohexyl-N-[(3aS,4S,6aR)-2-(3-fluorobenzyl)octahydrocyclopenta[c]pyrrol-4-yl]acetamide]: the IC50 was found to be 0.99 µM.

Turning to `O=C(N[C@H]1CC[C@H]2CN(CCCc3cccc(F)c3)C[C@H]21)C(C1CCCCC1)C1CCCCC1` [Example 68, 2,2-dicyclohexyl-N-{(3aS,4S,6aR)-2-[3-(3-fluorophenyl)propyl]octahydrocyclopenta[c]pyrrol-4-yl}acetamide], the IC50 turned out to be 0.82 µM.

The assay is the same for the next values; noted with them: read-out: IC50 (μM) or percent inhibition (* indicates 3 minute incubation, otherwise 60 minute); IC50; 60 minute pre-incubation with compound; IMR32 cells, 80 mM KCl depolarization.
For `CC(C)C[C@@H](N)C(=O)N[C@@H]1CC[C@@H]2CN(Cc3cccc(C(F)(F)F)c3)C[C@@H]21` (stereo in doubt) [Example 159, N^1-{(3aR*,4R*,6aS*)-2-[3-(trifluoromethyl)benzyl]octahydrocyclopenta[c]pyrrol-4-yl}-D-leucinamide], the IC50 stood at 5.55 µM.

On to `CC(C)C(C(=O)N[C@H]1CC[C@H]2CN(Cc3ccccc3)C[C@H]21)c1ccccc1` (stereo partly drawn) [Example 14, N-[(3aS,4S,6aR)-2-benzyloctahydrocyclopenta[c]pyrrol-4-yl]-3-methyl-2-phenylbutanamide], for which the IC50 stood at 3.79 µM.

Consider `O=C(N[C@H]1CC[C@H]2CN(Cc3ccccc3)C[C@H]21)C(C1CCCCC1)C1CCCCC1` [Example 15, N-[(3aS,4S,6aR)-2-benzyloctahydrocyclopenta[c]pyrrol-4-yl]-2,2-dicyclohexylacetamide], for which the IC50 was determined as 16.5 µM.

As to `CC[C@H](C(=O)N[C@@H]1CC[C@H]2CN(Cc3ccccc3)C[C@H]21)c1ccccc1` [Example 16, (2S)-N-[(3aS,4R,6aR)-2-benzyloctahydrocyclopenta[c]pyrrol-4-yl]-2-phenylbutanamide], the IC50 is 9.75 µM.

Regarding `O=C(N[C@@H]1CC[C@H]2CN(Cc3ccccc3)C[C@H]21)C(c1ccccc1)C1CCCC1` (stereo partly drawn) [Example 17, N-[(3aS,4R,6aR)-2-benzyloctahydrocyclopenta[c]pyrrol-4-yl]-2-cyclopentyl-2-phenylacetamide], the IC50 was found to be 1.57 µM.

`CC(C)C(C(=O)N[C@@H]1CC[C@H]2CN(Cc3ccccc3)C[C@H]21)c1ccccc1` (stereo partly drawn) [Example 18, N-[(3aS,4R,6aR)-2-benzyloctahydrocyclopenta[c]pyrrol-4-yl]-3-methyl-2-phenylbutanamide]: the IC50 was determined as 2.68 µM.

As to `CC(C)(C)C(C(=O)N[C@@H]1CC[C@H]2CN(Cc3ccccc3)C[C@H]21)c1ccccc1` (stereo partly drawn) [Example 30, N-[(3aS,4R,6aR)-2-benzyloctahydrocyclopenta[c]pyrrol-4-yl]-3,3-dimethyl-2-phenylbutanamide], the IC50 amounted to 1.81 µM.

On to `CC(C)(C)[C@H](C(=O)N[C@@H]1CC[C@H]2CN(Cc3ccccc3)C[C@H]21)c1ccccc1` [Example 31, (2S)-N-[(3aS,4R,6aR)-2-benzyloctahydrocyclopenta[c]pyrrol-4-yl]-3,3-dimethyl-2-phenylbutanamide], for which the IC50 turned out to be 1.65 µM.

Take `CC(C)(C)[C@@H](C(=O)N[C@@H]1CC[C@H]2CN(Cc3ccccc3)C[C@H]21)c1ccccc1` [Example 32, (2R)-N-[(3aS,4R,6aR)-2-benzyloctahydrocyclopenta[c]pyrrol-4-yl]-3,3-dimethyl-2-phenylbutanamide]: the IC50 amounted to 1.42 µM.

With `CC[C@H](C(=O)N[C@H]1CC[C@@H]2CN(Cc3ccccc3)C[C@@H]21)c1ccccc1` [Example 33, (2S)-N-[(3aR,4S,6aS)-2-benzyloctahydrocyclopenta[c]pyrrol-4-yl]-2-phenylbutanamide], the IC50 was 7.41 µM.

Consider `O=C(N[C@H]1CC[C@@H]2CN(Cc3ccccc3)C[C@@H]21)C(c1ccccc1)C1CCCC1` (stereo partly drawn) [Example 34, N-[(3aR,4S,6aS)-2-benzyloctahydrocyclopenta[c]pyrrol-4-yl]-2-cyclopentyl-2-phenylacetamide], for which the IC50 is 1.51 µM.

On to `CC(C)C(C(=O)N[C@H]1CC[C@@H]2CN(Cc3ccccc3)C[C@@H]21)c1ccccc1` (stereo partly drawn) [Example 35, N-[(3aR,4S,6aS)-2-benzyloctahydrocyclopenta[c]pyrrol-4-yl]-3-methyl-2-phenylbutanamide], for which the IC50 came to 3.26 µM.

For the compound `CC(C)C(C(=O)N[C@H]1CC[C@@H]2CN(Cc3ccccc3)C[C@@H]21)c1ccc(Cl)cc1` (stereo partly drawn) [Example 43, N-[(3aR,4S,6aS)-2-benzyloctahydrocyclopenta[c]pyrrol-4-yl]-2-(4-chlorophenyl)-3-methylbutanamide], the IC50 worked out at 1.49 µM.

Turning to `CC(C)(C)C(C(=O)N[C@H]1CC[C@@H]2CN(Cc3ccccc3)C[C@@H]21)c1ccccc1` (stereo partly drawn) [Example 52, N-[(3aR,4S,6aS)-2-benzyloctahydrocyclopenta[c]pyrrol-4-yl]-3,3-dimethyl-2-phenylbutanamide], the IC50 amounted to 3.36 µM.

Consider `O=C(N[C@H]1CC[C@H]2CN(Cc3ccc(F)c(C(F)(F)F)c3)C[C@H]21)C(C1CCCCC1)C1CCCCC1` [Example 57, 2,2-dicyclohexyl-N-{(3aS,4S,6aR)-2-[4-fluoro-3-(trifluoromethyl)benzyl]octahydrocyclopenta[c]pyrrol-4-yl}acetamide], for which the IC50 stood at 0.29 µM.

With `O=C(N[C@H]1CC[C@H]2CN(Cc3ccc(C(F)(F)F)c(F)c3)C[C@H]21)C(C1CCCCC1)C1CCCCC1` [Example 58, 2,2-dicyclohexyl-N-{(3aS,4S,6aR)-2-[3-fluoro-4-(trifluoromethyl)benzyl]octahydrocyclopenta[c]pyrrol-4-yl}acetamide], the IC50 came to 1.35 µM.

For the compound `O=C(N[C@H]1CC[C@H]2CN(Cc3cc(C(F)(F)F)cc(C(F)(F)F)c3)C[C@H]21)C(C1CCCCC1)C1CCCCC1` [Example 59, N-{(3aS,4S,6aR)-2-[3,5-bis(trifluoromethyl)benzyl]octahydrocyclopenta[c]pyrrol-4-yl}-2,2-dicyclohexylacetamide], the IC50 worked out at 0.51 µM.

Turning to `Cc1ccc(CN2C[C@@H]3CC[C@H](NC(=O)C(C4CCCCC4)C4CCCCC4)[C@@H]3C2)cc1` [Example 62, 2,2-dicyclohexyl-N-[(3aS,4S,6aR)-2-(4-methylbenzyl)octahydrocyclopenta[c]pyrrol-4-yl]acetamide], the IC50 worked out at 1.64 µM.

Take `O=C(N[C@H]1CC[C@H]2CN(CCCc3cccc(Cl)c3)C[C@H]21)C(C1CCCCC1)C1CCCCC1` [Example 67, N-{(3aS,4S,6aR)-2-[3-(3-chlorophenyl)propyl]octahydrocyclopenta[c]pyrrol-4-yl}-2,2-dicyclohexylacetamide]: the IC50 is 1.32 µM.

For the compound `O=C(N[C@H]1CC[C@H]2CN(CCCc3ccccc3)C[C@H]21)C(C1CCCCC1)C1CCCCC1` [Example 69, 2,2-dicyclohexyl-N-[(3aS,4S,6aR)-2-(3-phenylpropyl)octahydrocyclopenta[c]pyrrol-4-yl]acetamide], the IC50 amounted to 1.69 µM.

`O=C(N[C@H]1CC[C@H]2CN(CCCc3ccc(C(F)(F)F)cc3)C[C@H]21)C(C1CCCCC1)C1CCCCC1` [Example 70, 2,2-dicyclohexyl-N-((3aS,4S,6aR)-2-{3-[4-(trifluoromethyl)phenyl]propyl}octahydrocyclopenta[c]pyrrol-4-yl)acetamide]: the IC50 was 1.93 µM.

With `O=C(N[C@H]1CC[C@H]2CN(Cc3ccncc3)C[C@H]21)C(C1CCCCC1)C1CCCCC1` [Example 72, 2,2-dicyclohexyl-N-[(3aS,4S,6aR)-2-(pyridin-4-ylmethyl)octahydrocyclopenta[c]pyrrol-4-yl]acetamide], the IC50 came to 3.23 µM.

`O=C(N[C@H]1CC[C@H]2CN(Cc3cccnc3)C[C@H]21)C(C1CCCCC1)C1CCCCC1` [Example 73, 2,2-dicyclohexyl-N-[(3aS,4S,6aR)-2-(pyridin-3-ylmethyl)octahydrocyclopenta[c]pyrrol-4-yl]acetamide]: the IC50 was determined as 3.26 µM.
